Assay results published in patent US20030109460A1, “Medicinal composition containing camptothecin derivative and ph regulating agent” (priority 2000, published 2003).
Several values for one entry are separate records, joined by “and”; a condition that tells them apart may be missing. Equal entries are not always repeated.

Assays:
[1] = Changes in pH by freeze drying treatment (Example 7); assay type: physicochemical; conditions: for pH Before freeze drying / pH After freeze drying: Compound AS 2 mg, hydrochloric acid; for pH After freeze drying: redissolved to same concentration
Procedure: The pharmaceutical composition containing compound AS methanesulfonate was produced according to the formulation and production scale shown in Table 7 (AS methanesulfonate:maltose=1:19 or 1:38 by weight), and pH of the solution before freeze drying and pH of a solution prepared by dissolving the preparation after freeze drying in water to the same concentration of the solution before freeze drying were measured.

tumor = assay: Anti-tumor effect
[2] = Stability of freeze-dried compound AS methanesulfonate, effect of adding amount of maltose (Example 4); assay type: physicochemical; conditions: brown vials
[3] = Stability of freeze-dried compound AS methanesulfonate, effect of pH, maltose 100 mg/ml (Example 5); assay type: physicochemical; conditions: brown vials
Procedure: Maltose was added to an aqueous solution (1.0 mg/ml as a concentration converted to free form) of compound AS methanesulfonate to the final concentration of 100 mg/ml (AS methanesulfonate:maltose=1:77 by weight), and pH was adjusted to 3.5, 4.0 or 4.5 by adding hydrochloric acid. […] Brown vials were used as the container.

[4] = Stability of freeze-dried compound AS methanesulfonate, effect of pH, maltose 50 mg/ml (Example 6); assay type: physicochemical; conditions: colorless vials
Procedure: Maltose was added to an aqueous solution (1.0 mg/ml as a concentration converted to free form) of compound AS methanesulfonate to the final concentration of 50 mg/ml (AS methanesulfonate:maltose=1:38 by weight), and pH was adjusted to 2.5, 3.0, 3.5 or 4.0 by adding hydrochloric acid. […] Colorless vials were used as the container.

[5] = Long term stability of freeze-dried compound AS methanesulfonate (Example 8); assay type: physicochemical
Procedure: A 1.4 kg portion of maltose and 73 g (56 g as converted to free form) of compound AS methanesulfonate was dissolved in 22 L of water (AS methanesulfonate:maltose=1:19 by weight). […] After freeze drying, this was stored under a condition of 5° C. or 25° C. with a relative humidity of 60%, and then dissolved in water to the same concentration of the solution before freeze drying to measure pH. […] Colorless vials were used as the container.

[6] = Solubility under strongly acidic condition; assay type: physicochemical; conditions: strongly acidic condition of pH 2.0 or less; salting out
Excerpt: Generally, camptothecin derivatives have a lactone ring structure, so it is considered that reduction of the drug effect occurs due to ring-opening of the lactone ring in the structure in the alkaline range. In consequence, it is desirable that a pharmaceutical composition containing a camptothecin derivative having a lactone ring or a salt thereof is maintained within acidic range for the purpose of keeping the lactone ring under closed state. […] From two viewpoints of keeping closed state of lactone ring and ensuring proper solubility of the compound, it is desirable that the pharmaceutical composition of the invention is maintained within a weakly acidic condition by formulating a pH-adjusting substance. In this connection, when the pharmaceutical composition is an aqueous preparation, the term “a weakly acidic condition” as used herein means from about pH 3 to 6, and when the pharmaceutical composition is a freeze-dried preparation, it means that pH of an aqueous solution prepared by dissolving in water is from about pH 3 to 6.

[7] = Stability against heat and light; assay type: physicochemical; conditions: severe treatment with heat and light
Procedure: In consequence, overkill approach and the like sterilization methods which accompany heating are not suited for the pharmaceutical composition of the invention. In order to obtain a substantially sterilized condition, it is desirable to employ a method in which the pharmaceutical composition is prepared under aseptic condition, a method in which a filter sterilization-treated solution of the pharmaceutical composition is made into a freeze-dried preparation, and the like. Particularly, the method for making a freeze-dried preparation is desirable. In addition, it is desirable for its preservation to use a container having shading ability. For example, brown vials and the like can be cited.

[8] = Production scale 28.0 L, Maltose 50 mg, water total vol. 1 ml
[9] = Production scale 90.0 L, Maltose 100 mg, water total vol. 2 ml
[10] = 25° C., 60% R.H., Starting time

For `CC[C@@]1(O)C(=O)OCc2c1cc1n(c2=O)Cc2c-1nc1cc(F)c(C)c3c1c2[C@@H](N)CC3` [compound AS, (1S,9S)-1-amino-9-ethyl-5-fluoro-2,3-dihydro-9-hydroxy-4-methyl-1H,12H-benzo[de]pyrano[3′,4′:6,7]indolizino[1,2-b]quinoline-10,13(9H,15H)-dione], the “pH Before freeze drying” value [1, 8] was 3.73 and 3.67, the “pH After freeze drying” value [1, 8] was 4.00 and 3.83 and the “pH Before freeze drying” value [1, 9] was 3.85. For the same compound, the “pH After freeze drying” value [1, 9] was 3.97, the anti-tumor effect (tumor) was “potent anti-tumor effect” and the “anti-tumor effect relative to compound AR” value (tumor; compound AS versus compound AR) was “about two times higher”.
For `CC[C@@]1(O)C(=O)OCc2c1cc1n(c2=O)Cc2c-1nc1cc(F)c(C)c3c1c2[C@H](N)CC3` [compound AR, (1R,9S)-1-amino-9-ethyl-5-fluoro-2,3-dihydro-9-hydroxy-4-methyl-1H,12H-benzo[de]pyrano[3′,4′:6,7]indolizino[1,2-b]quinoline-10,13 (9H,15H)-dione], the anti-tumor effect (tumor) was “potent anti-tumor effect”.
With `CC[C@@]1(O)C(=O)OCc2c1cc1n(c2=O)Cc2c-1nc1cc(F)c(C)c3c1c2[C@@H](N)CC3.CS(=O)(=O)O` [compound AS methanesulfonate, (1S,9S)-1-amino-9-ethyl-5-fluoro-2,3-dihydro-9-hydroxy-4-methyl-1H,12H-benzo[de]pyrano[3′,4′:6,7]indolizino[1,2-b]quinoline-10,13(9H,15H)-dione methanesulfonate] the “Weight % of total analogous matter” value ([2]; Maltose 50 mg/ml, 40° C., 75% R.H., 1 month, pH 4.0) was 0.52 Weight %, the “Weight % of total analogous matter” value ([2]; Maltose 50 mg/ml, 50° C., 1 month, pH 4.0) was 0.80 Weight % and the “Weight % of total analogous matter” value ([2]; Maltose 50 mg/ml, Starting time, pH 4.0 hydrochloric acid) was 0.34 Weight %. For the same compound, the “Weight % of total analogous matter” value ([2]; Maltose 100 mg/ml, 40° C., 75% R.H., 1 month, pH 4.0) was 1.36 Weight %, the “Weight % of total analogous matter” value ([2]; Maltose 100 mg/ml, 50° C., 1 month, pH 4.0) was 2.24 Weight % and the “Weight % of total analogous matter” value ([2]; Maltose 100 mg/ml, Starting time, pH 4.0) was 0.50 Weight %. For the same compound, the “Weight % of total analogous matter” value ([3]; pH 3.5, 40° C., 75% R.H., 1 month) was 3.12 Weight %, the “Weight % of total analogous matter” value ([3]; pH 3.5, 60° C., 2 weeks) was 7.52 Weight % and the “Weight % of total analogous matter” value ([3]; pH 3.5, Starting time) was 0.72 Weight %. For the same compound, the “Weight % of total analogous matter” value ([3]; pH 4.0, 40° C., 75% R.H., 1 month) was 1.36 Weight %, the “Weight % of total analogous matter” value ([3]; pH 4.0, 60° C., 2 weeks) was 3.13 Weight % and the “Weight % of total analogous matter” value ([3]; pH 4.0, Starting time) was 0.50 Weight %. The “Weight % of total analogous matter” value ([3]; pH 4.5, 40° C., 75% R.H., 1 month) was 0.51 Weight %, the “Weight % of total analogous matter” value ([3]; pH 4.5, 60° C., 2 weeks) was 0.75 Weight % and the “Weight % of total analogous matter” value ([3]; pH 4.5, Starting time) was 0.40 Weight %. For the same compound, the “Weight % of total analogous matter” value ([4]; pH 2.5, 60° C., 2 weeks) was 21.43 Weight %, the “Weight % of total analogous matter” value ([4]; pH 2.5, Starting time) was 1.05 Weight % and the “Weight % of total analogous matter” value ([4]; pH 3.0, 60° C., 2 weeks) was 10.64 Weight %. For the same compound, the “Weight % of total analogous matter” value ([4]; pH 3.0, Starting time) was 0.42 Weight %, the “Weight % of total analogous matter” value ([4]; pH 3.5, 60° C., 2 weeks) was 5.07 Weight % and the “Weight % of total analogous matter” value ([4]; pH 3.5, Starting time) was 0.27 Weight %. The “Weight % of total analogous matter” value ([4]; pH 4.0, 60° C., 2 weeks) was 1.83 Weight %, the “Weight % of total analogous matter” value ([4]; pH 4.0, Starting time) was 0.23 Weight % and the “change of pH by freeze drying treatment” value ([1]; maltose 1:19 or 1:38 by weight) was “hardly changes”. The “Total analogous matter weight %” value ([5]; 5° C., 1 month) was 0.32 weight %, the pH ([5]; 5° C., 1 month) was 3.9 and the “Total analogous matter weight %” value ([5]; 5° C., 3 months) was 0.33 weight %. The pH ([5]; 5° C., 3 months) was 3.9, the “Total analogous matter weight %” value ([5]; 5° C., 6 months) was 0.33 weight % and the pH ([5]; 5° C., 6 months) was 3.7. For the same compound, the “Total analogous matter weight %” value ([5]; 5° C., 9 months) was 0.33 weight %, the pH ([5]; 5° C., 9 months) was 4.0 and the “Total analogous matter weight %” value ([5]; 5° C., 12 months) was 0.33 weight %. For the same compound, the pH ([5]; 5° C., 12 months) was 3.9, the “Total analogous matter weight %” value ([5]; 5° C., 24 months) was 0.33 weight % and the pH ([5]; 5° C., 24 months) was 4.1. The “Total analogous matter weight %” value ([5]; 5° C., 30 months) was 0.33 weight %, the pH ([5]; 5° C., 30 months) was 4.6 and the “Total analogous matter weight %” value ([5]; 5° C., 37 months) was 0.32 weight %. The pH ([5]; 5° C., 37 months) was 3.7, the “Total analogous matter weight %” value ([5]; 5° C., Starting time, colorless vials) was 0.33 weight % and the pH ([5]; 5° C., Starting time, redissolved in water) was 3.8. For the same compound, the “Total analogous matter weight %” value ([5]; 25° C., 60% R.H., 1 month) was 0.33 weight %, the pH ([5]; 25° C., 60% R.H., 1 month) was 3.9 and the “Total analogous matter weight %” value ([5]; 25° C., 60% R.H., 3 months) was 0.33 weight %. For the same compound, the pH ([5]; 25° C., 60% R.H., 3 months) was 3.9, the “Total analogous matter weight %” value ([5]; 25° C., 60% R.H., 6 months) was 0.33 weight % and the pH ([5]; 25° C., 60% R.H., 6 months) was 3.7. For the same compound, the “Total analogous matter weight %” value ([5]; 25° C., 60% R.H., 9 months) was 0.33 weight %, the pH ([5]; 25° C., 60% R.H., 9 months) was 4.0 and the “Total analogous matter weight %” value ([5]; 25° C., 60% R.H., 12 months) was 0.33 weight %. For the same compound, the pH ([5]; 25° C., 60% R.H., 12 months) was 4.0, the “Total analogous matter weight %” value ([5]; 25° C., 60% R.H., 24 months) was 0.33 weight % and the pH ([5]; 25° C., 60% R.H., 24 months) was 4.3. For the same compound, the “Total analogous matter weight %” value ([5]; 25° C., 60% R.H., 37 months) was 0.33 weight %, the pH ([5]; 25° C., 60% R.H., 37 months) was 3.9 and the “Total analogous matter weight %” value [5, 10] was 0.33 weight %. For the same compound, the pH [5, 10] was 3.8 and the “formation of the total analogous matter as weight %” value ([5]; until 37 months) was at most 0.33%.
With `CC[C@@]1(O)C(=O)OCc2c1cc1n(c2=O)Cc2c-1nc1cc(F)c(C)c3c1c2C(N)CC3` (stereo partly drawn) [compound A, (9S)-1-amino-9-ethyl-5-fluoro-2,3-dihydro-9-hydroxy-4-methyl-1H,12H-benzo[de]pyrano[3′,4′:6,7]indolizino[1,2-b]quinoline-10,13(9H,15H)-dione] the solubility [6] was “considerably reduced” and the “stability against heat and light” value [7] was “considerably unstable”.
